Measurements as given in US8618175B2, “Ultrasound medical gel composition etherified hydroxyethylcellulose” (Brussels Ventures Corp., priority 2010, dated 2013).

Assay: Spreading ability of solvents, drop on Standard No. 1 filter paper
Assay type: physicochemical
Details: for Drop Diameter After Set period of time 0(h) / Drop Diameter After Set period of time 0.5(h) / Drop Diameter After Set period of time 1(h) / Drop Diameter After Set period of time 8(h): average of 3 trials
Method: The spreading ability of various solvents was measured. Solvents including an antimicrobial agent, as well as solvents without an antimicrobial agent, were tested. Benzalkonium chloride was used as an antimicrobial agent. Spreading ability was measured by dropping one drop of liquid onto Standard No. 1 filter paper, and measuring the diameter of each drop at various time periods. The results are shown below in table 3, and reflect the average results obtained after 3 trials for each sample.

% Increase in drop diameter after 8 h (antimicrobial agent 0 wt %) | Drop Diameter After Set period of time 0(h) (antimicrobial agent 0 wt %) | Drop Diameter After Set period of time 0.5(h) (antimicrobial agent 0 wt %) | Drop Diameter After Set period of time 1(h) (antimicrobial agent 0 wt %) | Drop Diameter After Set period of time 8(h) (antimicrobial agent 0 wt %) | % Increase in drop diameter after 8 h (benzalkonium chloride 3.2 wt %) | Drop Diameter After Set period of time 0(h) (benzalkonium chloride 3.2 wt %) | Drop Diameter After Set period of time 0.5(h) (benzalkonium chloride 3.2 wt %) | Drop Diameter After Set period of time 1(h) (benzalkonium chloride 3.2 wt %) | Drop Diameter After Set period of time 8(h) (benzalkonium chloride 3.2 wt %) | Structure (SMILES)
357% | 7.0 | 22.3 | 23.6 | 32.0 | 632% | 4.0 | 22.6 | 24.0 | 29.3 | OCC(O)CO [Glycerin 99%, Glycerin]
120% | 10.0 | 28.0 | 29.0 | 22.0 | 100% | 12.3 | 28.0 | 29.0 | 24.6 | CC(O)CO (stereo not drawn) [Propylene Glycol]

Structure (SMILES) | % Increase in drop diameter after 8 h (antimicrobial agent 0 wt %) | Drop Diameter After Set period of time 0(h) (antimicrobial agent 0 wt %) | Drop Diameter After Set period of time 0.5(h) (antimicrobial agent 0 wt %) | Drop Diameter After Set period of time 1(h) (antimicrobial agent 0 wt %) | Drop Diameter After Set period of time 8(h) (antimicrobial agent 0 wt %) | % Increase in drop diameter after 8 h (benzalkonium chloride 3.2 wt %) | Drop Diameter After Set period of time 0(h) (benzalkonium chloride 3.2 wt %) | Drop Diameter After Set period of time 0.5(h) (benzalkonium chloride 3.2 wt %) | Drop Diameter After Set period of time 1(h) (benzalkonium chloride 3.2 wt %) | Drop Diameter After Set period of time 8(h) (benzalkonium chloride 3.2 wt %)
OCCCO [Propanediol (Zemea ™), Propanediol] | 263% | 10.6 | 32 | 33.5 | 38.5 | 249% | 10.6 | 30.3 | 32.3 | 37.0
